Test results taken from patent publication US20240270821A1, “GIP/GLP1/GCG TRI-RECEPTOR AGONISTS AND USES THEREOF” (priority 2023, published 2024).
Starred links: 1 amine or outer side, 2 acyl side, 3 side chain; linkers in the order of their positions; H or OH if unused. Non-standard residues stand in square brackets, D forms with d. Groups on a side chain read outwards from the residue. *: point of attachment. C18 diacid = O=C(O)CCCCCCCCCCCCCCCCC(=O)*; γGlu = O=C(O)[C@H](CCC(=O)[*:2])N[*:1]; αMeL = CC(C)C[C@](C)(N)C(=O)O; Orn = NCCC[C@H](N)C(=O)O; AEEA = NCCOCCOCC(=O)O; Aib = CC(C)(N)C(=O)O

Columns and labels:
Assay type in all cases: cell-based
[1] = target: T1, hGLP-1R (Homo sapiens, UniProt P43220); assay: Functional cAMP activation in the presence of 0.1% casein (no HSA); settings: in the presence of 0.1% casein (no HSA); geometric mean; read-out: Relative cAMP EC50, hGLP-1R;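 further: intracellular cAMP rise after 30 min at 37 °C read by HTRF, normalized between buffer only (0%) and maximal control ligand (100%), four-parameter variable-slope fit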
T1 sequence (P43220 24-463): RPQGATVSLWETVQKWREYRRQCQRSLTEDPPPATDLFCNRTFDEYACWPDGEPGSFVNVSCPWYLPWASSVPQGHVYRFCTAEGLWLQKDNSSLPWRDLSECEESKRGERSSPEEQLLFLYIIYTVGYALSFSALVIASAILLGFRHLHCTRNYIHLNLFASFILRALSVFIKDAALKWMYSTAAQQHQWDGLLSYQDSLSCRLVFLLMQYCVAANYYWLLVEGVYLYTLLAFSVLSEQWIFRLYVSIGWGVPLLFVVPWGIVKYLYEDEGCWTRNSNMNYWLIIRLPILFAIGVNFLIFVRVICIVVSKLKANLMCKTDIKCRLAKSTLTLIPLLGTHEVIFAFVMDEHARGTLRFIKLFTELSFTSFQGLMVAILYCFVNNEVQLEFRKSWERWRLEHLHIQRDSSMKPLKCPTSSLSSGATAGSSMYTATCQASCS

[2] = target: human GcgR (Homo sapiens, UniProt P47871); assay: Functional cAMP activity in the presence of 1% HSA; settings: read-out: cAMP Rel EC50, hGcgR
human GcgR, sequence (P47871 26-477): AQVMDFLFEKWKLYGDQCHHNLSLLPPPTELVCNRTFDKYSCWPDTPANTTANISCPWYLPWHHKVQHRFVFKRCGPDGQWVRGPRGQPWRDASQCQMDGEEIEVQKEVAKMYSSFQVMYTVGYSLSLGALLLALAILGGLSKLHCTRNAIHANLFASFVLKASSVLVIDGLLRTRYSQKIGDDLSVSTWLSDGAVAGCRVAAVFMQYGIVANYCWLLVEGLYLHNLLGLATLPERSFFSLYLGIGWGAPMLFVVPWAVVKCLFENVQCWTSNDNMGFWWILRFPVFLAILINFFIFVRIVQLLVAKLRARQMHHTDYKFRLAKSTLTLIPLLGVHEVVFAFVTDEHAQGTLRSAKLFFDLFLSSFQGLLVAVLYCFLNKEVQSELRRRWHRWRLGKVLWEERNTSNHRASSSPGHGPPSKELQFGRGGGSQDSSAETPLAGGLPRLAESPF

[3] = target: T1, hGLP-1R; assay: Functional cAMP activity in the presence of 1% HSA; settings: read-out: cAMP Rel EC50, hGLP-1R
[4] = target: T2, hGIPR (Homo sapiens, UniProt P48546); assay: Functional cAMP activation in the presence of 0.1% casein (no HSA); settings: in the presence of 0.1% casein (no HSA); geometric mean; read-out: Relative cAMP EC50, hGIPR;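 further: intracellular cAMP rise after 30 min at 37 °C read by HTRF against a standard curve, scaled between buffer alone (0%) and top control ligand concentration (100%), four-parameter fit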
T2 sequence (P48546 22-466): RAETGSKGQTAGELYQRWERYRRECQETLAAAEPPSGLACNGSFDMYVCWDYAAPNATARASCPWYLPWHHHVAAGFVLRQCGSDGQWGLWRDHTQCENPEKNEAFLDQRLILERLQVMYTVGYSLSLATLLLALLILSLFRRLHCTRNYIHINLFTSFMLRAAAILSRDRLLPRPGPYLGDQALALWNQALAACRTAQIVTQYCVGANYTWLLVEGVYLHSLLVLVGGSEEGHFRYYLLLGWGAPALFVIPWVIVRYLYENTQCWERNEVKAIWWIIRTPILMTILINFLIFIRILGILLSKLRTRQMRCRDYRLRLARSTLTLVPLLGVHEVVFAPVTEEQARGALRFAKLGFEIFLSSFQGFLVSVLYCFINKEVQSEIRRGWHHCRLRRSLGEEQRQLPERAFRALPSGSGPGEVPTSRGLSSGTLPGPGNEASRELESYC

[5] = target: hGcgR (Homo sapiens, UniProt P47871); assay: as above; settings: in the presence of 0.1% casein (no HSA); geometric mean; read-out: Relative cAMP EC50, hGcgR;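 further: intracellular cAMP rise after 30 min at 37 °C, read by HTRF against a cAMP standard curve, scaled from buffer only (0%) to maximal control ligand response (100%)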
hGcgR, sequence (P47871 26-477): as the sequence (P47871 26-477) above

[6] = target: T2, hGIPR; assay: Functional cAMP activity in the presence of 1% HSA; settings: read-out: cAMP Rel EC50, hGIPR
[7] = target: human GLP1-R (Homo sapiens, UniProt P43220); assay: GLP1-R internalization assay in HEK293 cells; settings: for EC50: HEK293 cells expressing SNAP-GLP-1R, read-out: GLP1R Internalization EC50; for Internalization % TOP: normalized to maximum concentration of GLP-1 (100%)
human GLP1-R, sequence (P43220 24-463): as the sequence (P43220 24-463) above

Substance | EC50 [1] | EC50 [2] | EC50 [3] | EC50 [4] | EC50 [5] | EC50 [6] | EC50 [7] | Internalization % TOP [7]
H-Y[Aib]QGTFTSDFS[Orn][αMeL]LDKK([AEEA-γGlu-C18 diacid])AQ[Aib]AFIEWLLEGGHSSGAPPPSGT-NH2 [Example 171] | 2.89 nM | 502 nM | 287 nM | 0.2 nM | 3.86 nM | 27.1 nM | 61.4 nM | 36.1%
H-Y[Aib]QGTFTSDFS[Orn][αMeL]LDKK([AEEA-γGlu-C18 diacid])AQ[Aib]AFIEWLLEGGPSSGAPPPSGS-NH2 [Example 168] | 2.44 nM | 1270 nM | 281 nM | 0.233 nM | 5.54 nM | 31.9 nM | 74.8 nM | 38.7%
H-Y[Aib]QGTFTSDFS[Orn][αMeL]LDKK([AEEA-γGlu-C18 diacid])AQ[Aib]AFIEWLLEGGSSSGAPPPSGE-NH2 [Example 172] | 3.5 nM | 605 nM | 457 nM | 0.174 nM | 3.38 nM | 29.3 nM | 121 nM | 41.4%
H-Y[Aib]QGTFTSDFS[Orn][αMeL]LDKK([AEEA-γGlu-C18 diacid])AQ[Aib]AFIEWLLEGGSSSGAPPPSGS-NH2 [Example 173] | 2.32 nM | 745 nM | 293 nM | 0.168 nM | 3.6 nM | 49.9 nM | 97.1 nM | 38.6%
H-Y[Aib]QGTFTSDFS[Orn][αMeL]LDKK([AEEA-γGlu-C18 diacid])AQ[Aib]AFIEWLLEGGTSSGAPPPSGE-NH2 [Example 175] | 4 nM | 579 nM | 386 nM | 0.218 nM | 4.92 nM | 29.6 nM | 116 nM | 49.2%
H-Y[Aib]QGTFTSDFS[Orn][αMeL]LDKK([AEEA-γGlu-C18 diacid])AQ[Aib]AFIEWLLEGGTSSGAPPPSGS-NH2 [Example 176] | 2.92 nM | 461 nM | 389 nM | 0.212 nM | 4.1 nM | 40.7 nM | 103 nM | 48%
H-Y[Aib]QGTFTSDFS[Orn][αMeL]LDKK([AEEA-γGlu-C18 diacid])AQ[Aib]AFIEWLLEGGTSSGAPPPSGT-NH2 [Example 177] | 2.97 nM | 758 nM | 483 nM | 0.213 nM | 4.22 nM | 34.8 nM | 79.4 nM | 44%
H-Y[Aib]QGTFTSDFS[Orn][αMeL]LDKK([AEEA-γGlu-C18 diacid])AQ[Aib]AFIEYLIE[Aib]GESSGAPPPSGE-NH2 [Example 219] | 0.835 nM | 1870 nM | 221 nM | 0.119 nM | 7.77 nM | 23.3 nM | 48 nM | 37.2%
H-Y[Aib]QGTFTSDFS[Orn][αMeL]LDKK([AEEA-γGlu-C18 diacid])AQ[Aib]AFIEYLIE[Aib]GESSGAPPPSGS-NH2 [Example 218] | 0.76 nM | 1480 nM | 152 nM | 0.0853 nM | 7.89 nM | 15 nM | 80.5 nM | 35%
H-Y[Aib]QGTFTSDFS[Orn][αMeL]LDKK([AEEA-γGlu-C18 diacid])AQ[Aib]AFIEYLLAGGPSSGAPPPEGE-NH2 [Example 99] | 3.54 nM | 1130 nM | 588 nM | 0.174 nM | 6.09 nM | 29.5 nM | 56.9 nM | 46.1%
H-Y[Aib]QGTFTSDFS[Orn][αMeL]LDKK([AEEA-γGlu-C18 diacid])AQ[Aib]AFIEYLLAGGPSSGAPPPSGD-NH2 [Example 85] | 2.73 nM | 1270 nM | 387 nM | 0.157 nM | 7.63 nM | 22.1 nM | 326 nM | 48.3%
H-Y[Aib]QGTFTSDFS[Orn][αMeL]LDKK([AEEA-γGlu-C18 diacid])AQ[Aib]AFIEYLLAGGPSSGAPPPSGE-NH2 [Example 86] | 2.43 nM | 1130 nM | 421 nM | 0.145 nM | 7.23 nM | 19.6 nM | 57.8 nM | 52.5%
